Reference: patent US9655824B2, “Use of diphenylmethane derivatives as tyrosinase inhibitors” (Symrise AG, priority 2003, dated 2017)

Experiments:
Format in all cases: cell-based
[1] = Cytotoxicity determination (MTT), 3T3 cells; details: mouse, 3T3 fibrosarcoma cells; 3T3 cells, 48 h incubation, MTT
Protocol: (§1) 3T3 fibrosarcoma cells or B16V mouse melanoma cells are distributed in a 96-well microtitre plate in a concentration of 1×10^4 cells/well (3T3) or 2×10^4 cells/well (B16V). After culturing for 24 h at 37° C. and 5% CO2 in DMEM medium (3T3 cells) or RPMI medium (B16V cells), enriched with 10% foetal calf serum, the medium is removed by suction. Various concentrations of the test substances, dissolved in fresh medium enriched with 5% foetal calf serum, are added and the plates are incubated for a further 48 h. A parallel incubation is carried out using SDS as standard in concentrations of 0.01 mM, 0.1 mM, 1 mM and 10 mM. After the incubation, the medium is removed by suction and the cells are incubated for with (sic) 2 h with MTT (3-[4,5-dimethylthiazol-2-yl]2,5-diphenyl tetrazolium bromide). After extraction of the dye with SDS acidified with acetic acid in DMSO (10 min), the absorption (A) at 570 nm is measured.
(§2) Average value and standard deviation of the controls, the blanks and the samples are calculated. The average value of the blanks is substracted from the average values of the controls and samples. The viability of the cells is indicated as a percentage with respect to the controls (100%): Viability (%)=(Atest compound/Acontrol)×100]

[2] = system: B16V mouse melanoma cells; assay: Lightening effect: inhibition of pigmentation in α-MSH-stimulated B16V cells; details: for IC50: Mus musculus, B16V cells, 10 nM α-MSH, 96 h, absorption 400 nm; for Activity greater than that of kojic acid by a factor: ratio of IC50 values versus kojic acid
Protocol: Test method: B16V mouse melanoma cells are distributed in a 96-well micro titre plate in a concentration of 5×10^3 cells/well. After culturing for 24 h at 37° C. and 5% CO2 in RPMI medium, enriched with 10% foetal calf serum, various concentrations of the test substances and 10 nM α-MSH (α-melanocyte stimulating hormone) are added and the plates are incubated for a further 96 h. The maximum concentration of the test substances used corresponds to 0.1 times the value of the particular IC20 value from the cytotoxicity assay. A parallel incubation was carried out with kojic acid as standard in concentrations of 0.01 mM, 0.1 mM and 1 mM. After the incubation, SDS and NaOH (final concentrations: 1 mM and 1M, respectively) are added to the culture medium and the adsorption (A) is measured at 400 nm after 3 h. The inhibition of the pigmentation in the presence of the test compounds or kojic acid was calculated in accordance with the following equation: Inhibition of pigmentation (%)=100−[(Atest compound/Acontrol)×100] The IC50 is calculated for each test compound from the inhibition of the pigmentation (%) in a series of dilutions of test compounds. The IC50 is the concentration of a test compound at which the pigmentation is 50% inhibited.

[3] = Cytotoxicity determination (MTT), B16V cells; details: mouse, B16V melanoma cells, 48 h incubation
Protocol: as §1, §2

[4] = system: 3T3 fibrosarcoma cells; assay: Cytotoxicity determination (MTT), 3T3 cells; details: approximately comparable to 4-hexylresorcinol
Protocol: as §1, §2

Row | IC50 [2] | Compound | IC20 at 48 h [1] | IC50 at 48 h [1] | Activity greater than that of kojic acid by a factor [2] | IC20 at 48 h [3] | IC50 at 48 h [3] | Cytotoxicity (in words) [4] | Effectiveness compared with 4-hexylresorcinol ([2]; versus 4-hexylresorcinol)
1 | 5.2 µM | CCCCCCc1ccc(O)cc1O [4-hexylresorcinol] | 70 µM | 140 µM | approximately 87 | – | – | – | –
2 | – | O=c1cc(CO)occ1O [Kojic acid, 5-hydroxy-2-hydroxymethyl-4-pyranone] | > 100000 µM | > 100000 µM | – | > 100000 µM | > 100000 µM | – | –
3 | 2.1 µM | CC(c1ccccc1)c1ccc(O)cc1O (stereo not shown) [Styrylresorcinol (4), 4-(1-phenylethyl)-1,3-dihydroxybenzene] | 70 µM | 150 µM | approximately 215 | 20 µM | 140 µM | relatively low cytotoxicity | more than twice as effective
